Bridge positions count the residues as written; N and C are the ends. Square brackets hold non-standard residues; d marks the D form. Peptide text beside a SMILES is read from it. NMeR = CN[C@@H](CCCNC(=N)N)C(=O)O

The values below come from ChEMBL document CHEMBL1125328, “Design and synthesis of a C7 mimetic for the predicted gamma-turn conformation found in several constrained RGD antagonists” (J Med Chem, 1992).

The test addresses Integrin alpha-IIb/beta-3 (Homo sapiens, UniProt P05106+P08514). The test is described as follows: Inhibition of [3H]-107260 binding to purified GPIIb/IIIa of human platelets.

Chain of Integrin alpha-IIb/beta-3 (P05106 27-788 limits assumed): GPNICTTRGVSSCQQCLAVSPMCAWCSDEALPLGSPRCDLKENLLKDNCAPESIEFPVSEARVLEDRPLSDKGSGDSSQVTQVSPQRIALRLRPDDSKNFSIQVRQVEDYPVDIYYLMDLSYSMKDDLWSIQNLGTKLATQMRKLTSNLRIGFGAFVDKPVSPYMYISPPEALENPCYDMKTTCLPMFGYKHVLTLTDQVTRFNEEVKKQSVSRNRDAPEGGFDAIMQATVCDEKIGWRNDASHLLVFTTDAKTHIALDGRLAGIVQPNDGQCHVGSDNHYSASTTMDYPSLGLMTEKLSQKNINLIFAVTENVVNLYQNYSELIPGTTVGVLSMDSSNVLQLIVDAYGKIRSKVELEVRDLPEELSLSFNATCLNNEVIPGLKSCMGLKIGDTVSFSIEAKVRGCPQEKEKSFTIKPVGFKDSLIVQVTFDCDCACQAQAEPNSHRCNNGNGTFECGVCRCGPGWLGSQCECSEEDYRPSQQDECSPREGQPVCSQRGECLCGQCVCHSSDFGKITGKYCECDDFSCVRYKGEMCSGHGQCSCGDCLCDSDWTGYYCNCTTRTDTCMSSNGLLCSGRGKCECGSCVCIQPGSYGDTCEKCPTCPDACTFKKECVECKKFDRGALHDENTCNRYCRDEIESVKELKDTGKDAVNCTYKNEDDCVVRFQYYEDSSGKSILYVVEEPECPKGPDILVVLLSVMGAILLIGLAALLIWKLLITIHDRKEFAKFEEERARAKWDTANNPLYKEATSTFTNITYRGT
Chain of Integrin alpha-IIb/beta-3 (P08514 32-887 limits assumed): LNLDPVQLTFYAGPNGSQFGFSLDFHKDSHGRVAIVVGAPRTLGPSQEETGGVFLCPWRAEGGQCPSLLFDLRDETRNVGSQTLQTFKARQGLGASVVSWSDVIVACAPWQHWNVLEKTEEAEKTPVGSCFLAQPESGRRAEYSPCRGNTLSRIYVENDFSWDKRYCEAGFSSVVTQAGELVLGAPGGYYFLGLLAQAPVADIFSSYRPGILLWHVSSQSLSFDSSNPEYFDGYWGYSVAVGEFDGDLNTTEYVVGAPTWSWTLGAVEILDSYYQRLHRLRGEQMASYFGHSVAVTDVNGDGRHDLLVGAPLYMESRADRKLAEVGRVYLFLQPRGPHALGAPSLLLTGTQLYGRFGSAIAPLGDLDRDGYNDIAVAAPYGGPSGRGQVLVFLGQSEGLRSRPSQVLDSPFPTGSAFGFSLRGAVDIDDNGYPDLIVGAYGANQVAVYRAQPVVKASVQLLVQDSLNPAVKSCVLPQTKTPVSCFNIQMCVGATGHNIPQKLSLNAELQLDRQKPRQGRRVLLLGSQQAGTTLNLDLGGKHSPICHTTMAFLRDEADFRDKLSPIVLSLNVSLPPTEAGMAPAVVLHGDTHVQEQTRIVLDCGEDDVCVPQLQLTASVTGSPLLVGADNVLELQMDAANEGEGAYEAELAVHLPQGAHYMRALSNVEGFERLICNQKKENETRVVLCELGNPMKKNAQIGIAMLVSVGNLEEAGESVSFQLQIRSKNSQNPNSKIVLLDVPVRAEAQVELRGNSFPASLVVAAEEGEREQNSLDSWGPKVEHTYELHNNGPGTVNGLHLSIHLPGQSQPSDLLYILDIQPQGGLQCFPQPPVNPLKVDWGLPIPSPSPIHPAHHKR
Chain of Integrin alpha-IIb/beta-3 (P08514 891-1039 limits assumed): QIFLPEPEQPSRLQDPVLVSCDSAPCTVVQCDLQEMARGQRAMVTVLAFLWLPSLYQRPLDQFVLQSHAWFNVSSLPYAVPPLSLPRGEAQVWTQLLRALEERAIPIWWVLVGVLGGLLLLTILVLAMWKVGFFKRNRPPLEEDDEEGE

As to `CC(=O)N(C)C(CCCNC(=N)N)C(=O)NCC1=CC(CC(=O)O)C(=O)N(c2ccccc2)CC1` (configuration not stated), the Ki (commonly a measure of affinity in units of concentration, obtained from inhibition or displacement) amounted to 271 nM. `CC(=O)N[C@H]1CSSC[C@@H](C(N)=O)NC(=O)[C@H](CC(=O)O)NC(=O)CNC(=O)[C@H](CCCN=C(N)N)N(C)C1=O` (Ac-C[NMeR]GDC-NH2; disulfide 1-5) registered a Ki of 175 nM.
